Laboratory results: ChEMBL document CHEMBL4177732, “Anti-neuroinflammatory effects of sesquiterpenoids isolated from Nardostachys jatamansi” (Bioorg Med Chem Lett, 2018)

Tests used:
BV-2 [1] = experiment: Inhibition of lipopolysaccharide-induced iNOS protein expression in mouse BV2 cells pre-incubated for 3 hrs before LPS stimulation by Western blot method; assay type: functional, cell-based
BV-2 [2] = experiment: Inhibition of lipopolysaccharide-induced nitric oxide production in mouse BV2 cells assessed as reduction in nitrite level by Griess reaction based ELISA; assay type: functional, cell-based
BV-2 [3] = experiment: Cytotoxicity in mouse BV2 cells by MTT assay; assay type: cell-based
BV-2 [4] = experiment: Inhibition of lipopolysaccharide-induced PGE2 production in mouse BV2 cells pre-incubated for 1 hr before LPS stimulation for 24 hrs; assay type: functional, cell-based
BV-2 [5] = experiment: Inhibition of lipopolysaccharide-induced IL-1beta production in mouse BV2 cells pre-incubated for 1 hr before LPS stimulation for 24 hrs by ELISA; assay type: functional, cell-based
BV-2 [6] = experiment: Inhibition of lipopolysaccharide-induced IL6 production in mouse BV2 cells pre-incubated for 1 hr before LPS stimulation for 24 hrs by ELISA; assay type: functional, cell-based
BV-2 [7] = experiment: Inhibition of lipopolysaccharide-induced TNFalpha production in mouse BV2 cells pre-incubated for 1 hr before LPS stimulation for 24 hrs by ELISA; assay type: functional, cell-based
Microglia [8] = experiment: Inhibition of lipopolysaccharide-induced nitric oxide production in Sprague-Dawley rat primary microglia cells assessed as reduction in nitrite level by Griess reaction based ELISA; assay type: functional, cell-based
Microglia [9] = experiment: Inhibition of lipopolysaccharide-induced PGE2 production in Sprague-Dawley rat primary microglia cells pre-incubated for 1 hr before LPS stimulation for 24 hrs; assay type: functional, cell-based
Microglia [10] = experiment: Inhibition of lipopolysaccharide-induced IL-1beta production in Sprague-Dawley rat primary microglia cells pre-incubated for 1 hr before LPS stimulation for 24 hrs by ELISA; assay type: functional, cell-based
Microglia [11] = experiment: Inhibition of lipopolysaccharide-induced IL6 production in Sprague-Dawley rat primary microglia cells pre-incubated for 1 hr before LPS stimulation for 24 hrs by ELISA; assay type: functional, cell-based
Microglia [12] = experiment: Inhibition of lipopolysaccharide-induced TNFalpha production in Sprague-Dawley rat primary microglia cells pre-incubated for 1 hr before LPS stimulation for 24 hrs by ELISA; assay type: functional, cell-based
BV-2 [13] = experiment: Inhibition of lipopolysaccharide-induced COX2 protein expression in mouse BV2 cells pre-incubated for 3 hrs before LPS stimulation by Western blot method; assay type: functional, cell-based
Microglia [14] = experiment: Inhibition of lipopolysaccharide-induced iNOS protein expression in Sprague-Dawley rat primary microglia cells pre-incubated for 3 hrs before LPS stimulation by Western blot method; assay type: functional, cell-based
Microglia [15] = experiment: Inhibition of lipopolysaccharide-induced COX2 protein expression in Sprague-Dawley rat primary microglia cells pre-incubated for 3 hrs before LPS stimulation by Western blot method; assay type: functional, cell-based
BV-2 [16] = experiment: Inhibition of lipopolysaccharide-induced nitric oxide production in mouse BV2 cells assessed as reduction in nitrite level at 60 uM by Griess reaction based ELISA; assay type: functional

| SMILES | IC50 (BV-2 [2]) | inhibition (BV-2 [2]) | Activity (BV-2 [3]) | inhibition at 60 µM (BV-2 [16]) | other results |
| --- | --- | --- | --- | --- | --- |
| C[C@@H]1CCC=C2C(=O)C=C[C@@H](O)[C@]21C | 3.48 µM | Dose-dependent effect | Non-Toxic |  | inhibition (BV-2 [1]): Dose-dependent effect; IC50 (BV-2 [4]): 2.05 µM; IC50 (BV-2 [5]): 2.04 µM; IC50 (BV-2 [6]): 3.57 µM; IC50 (BV-2 [7]): 2.11 µM; IC50 (Microglia [8]): 4.96 µM; IC50 (Microglia [9]): 5.33 µM; IC50 (Microglia [10]): 5.84 µM; IC50 (Microglia [11]): 3.62 µM; IC50 (Microglia [12]): 3.18 µM; inhibition (BV-2 [13]): Dose-dependent effect; inhibition (Microglia [14]): Dose-dependent effect; inhibition (Microglia [15]): Dose-dependent effect |
| C[C@@H]1C[C@@H](O)C=C2C(=O)C=C[C@@H](C(C)(C)O)[C@]21C | 46.5 µM | Dose-dependent effect | Non-Toxic |  |  |
| C[C@@H]1C[C@H](O)C=C2C(=O)C=C[C@@H](C(C)(C)O)[C@]21C | 30.5 µM | Dose-dependent effect | Non-Toxic |  |  |
| CC(C)(O)C[C@@H]1CC[C@]2(C)[C@@H](O)CC[C@@](C)(O)[C@@H]12 |  | Dose-dependent effect | Non-Toxic | 39% |  |

Second part, led by results:

| IC50 (BV-2 [2]) | SMILES | inhibition (BV-2 [2]) | Activity (BV-2 [3]) | inhibition at 60 µM (BV-2 [16]) | other results |
| --- | --- | --- | --- | --- | --- |
| > 60 µM | C=C1[C@@H]2O[C@@H](OC)[C@H]3[C@@H]1C[C@H](O)[C@]3(C)O2 |  | Non-Toxic | 39.7% |  |
| > 60 µM | CC(C)[C@]1(O)CC[C@@]2(C)[C@H](O)CC[C@](C)(O)[C@@H]2C1 |  | Non-Toxic | 28.4% |  |
| 27.8 µM | C=C1COC(=O)[C@H]2[C@@H]1C[C@H](O)[C@@]2(C)O [JATAMANIN A] | Dose-dependent effect | Non-Toxic |  |  |
| > 60 µM | CC(C)C1CC[C@@](C)(O)[C@@H]2CC[C@](C)(O)[C@H]2[C@@H]1O (stereo partly drawn) |  | Non-Toxic | 34% |  |
| 2.43 µM | C[C@@H]1C[C@H](O)C=C2C(=O)C=C[C@@H](O)[C@]21C [NARCHINOL B] | Dose-dependent effect | Non-Toxic |  | inhibition (BV-2 [1]): Dose-dependent effect; IC50 (BV-2 [4]): 2.38 µM; IC50 (BV-2 [5]): 1.73 µM; IC50 (BV-2 [6]): 2.9 µM; IC50 (BV-2 [7]): 1.7 µM; IC50 (Microglia [8]): 4.17 µM; IC50 (Microglia [9]): 3.1 µM; IC50 (Microglia [10]): 3.11 µM; IC50 (Microglia [11]): 4 µM; IC50 (Microglia [12]): 9.83 µM; inhibition (BV-2 [13]): Dose-dependent effect; inhibition (Microglia [14]): Dose-dependent effect; inhibition (Microglia [15]): Dose-dependent effect |
